Earlier results on two molecules are cited in article PMC7510478, “The effect of size, charge, and peptide ligand length on kidney targeting by small, organic nanoparticles” (Bioengineering & Translational Medicine, 2020).

For series [1], the system named is megalin. Also noted: method as in PMID 27617593, PMID 19202329, PMID 11994745, PMID 9574443.
Series [2] deals with ADPKD patients. An excerpt: Chronic kidney disease (CKD) affects 600 million people globally and is characterized by gradual kidney function decline. ^1 A common form of CKD is autosomal dominant polycystic kidney disease (ADPKD), which affects over 12 million people worldwide and is characterized by renal cyst formation that can result in the need for dialysis or kidney transplant. ^2 , ^3 , ^4 , ^5 Currently, there is no cure for ADPKD and tolvaptan is the only FDA approved treatment for ADPKD. ^6 Despite enthusiasm, tolvaptan has been reported to cause several side effects including polyuria, thirst, nocturia, and dru ...

Setting [3] is: study of 961 ADPKD patients undergoing tolvaptan treatment.

Take [Lys–Lys–Glu–Glu–Glu]3–Lys [(KKEEE)3K]: the “Uptake in megalin‐deficient mice” value in series [1] is given as “significantly reduced uptake”.
Take `Cc1ccccc1C(=O)Nc1ccc(C(=O)N2CCCC(O)c3cc(Cl)ccc32)c(C)c1` (stereo not shown) [tolvaptan]: the “Patients affected by polyuria” value in series [2] (ADPKD patients on tolvaptan) is 38%. Moreover, in series [2] (setting [3]), the “Adverse event rate, nocturia” value is reported as roughly 29% and the “Adverse event rate, thirst” value was “approximately 55%”.
